# Values joined by “and” are separate entries in the source; they are usually repeats but may differ in a detail not shown here. Equal values may be shown once. Marks after values point to notes of the source that are not given here.
# What was measured:
# NOS system [1] = experiment: NO-heme, total heme, nitrosylation and cured color in test tube pork loin sausages (Example 11)
# [2] = pH after immersion, pre-rigor pork semimembranosus muscle (first study); assay type: physicochemical
# NOS system [3] = experiment: NO-heme, total heme, nitrosylation and cured color in test tube pork loin sausages (Example 11); remark: listed apart in the source
# Description: Pork loins from a local meat distributor were procured on Mar. 18, 2019 and tested four weeks later on Apr. 18, 2019. A total of nine pounds of pork loins were split into thirds and ground through kidney, ½″, and ¼″ plates to make a restructured ham sausages formulated (Table 14) to contain either 1000 or 5000 ppm L-arginine which were stuffed in 2″ plastic casings and thermally processed. Three pounds of each grind size (9 pound batch) were mixed with high (5000 ppm), low (1000 ppm), or control (0 ppm) concentrations of brine at 25% addition using a Kitchen aid mixer. It was decided to lower the concentration of the L-arginine from 1500 ppm (Test 3) to 1000 ppm (Test 4) to verify that this concentration can generate acceptable levels of NO to develop cured color and residual nitrite for antioxidant and antimicrobial properties. Control and treatment met batches were stuffed in plastic casings in triplicate for each high, low, and control concentrations in one pound portions. […] The samples were tested for residual nitrite and nitroso-hemochromagen pigment (Table 14) one day after thermal processing cooking (April 19th to April 20th), then eight days after thermal processing on April 26th to determine any cure color fading and residual nitrite.
# [4] = test system: Nitric Oxide Synthase (NOS) system; experiment: Residual nitrite in pre-rigor pork semimembranosus muscle immersed in L-arginine (first study); assay type: biochemical
# Protocol: Pre-rigor pork Semimembranosus muscle samples were collected from four pre-rigor pork carcasses (n=4) harvested at the Rosenthal Meat Science and Technology Center at Texas A&M University at six separate times over a four day period (N=24). Muscle samples were treated with five concentrations of L-arginine, using water as the control treatment. Samples were either subjected to heat treatment (water bath increasing to 62° C. for 60 min) or left raw/fresh (uncooked). All treated muscle samples were analyzed for residual nitrite, and cooked samples were analyzed for nitrosylhemochromagen levels to determine curing efficiency.
# Solutions were prepared according to Wu to stabilize the muscle samples for enclosed reactions within the 50 mL conical tubes. […] The NaCl was used to stabilize any reaction and the NaE was used to accelerate any cure reaction that could occur. The L-arginine was prepared separately so as to be administered in specific concentration once the five grams of meat was added to the reaction tubes by creating dilutions of millimolar concentrations at 0 mM, 2 mM, 4 mM, 8 mM, 16 mM, and 32 mM.
# The procedures for determining the following sample reactions followed the procedures outlined by Wu 24 5 g muscle samples were individually placed into 50 mL conical tubes.
# Residual nitrite was determined using the modified AOAC Official Method 973.31 (Nitrite Analysis in Cured Meats Procedure) and was verified by Wu with sample (plasma or serum) preparation for amino acid analysis by HPLC and determination of nitrite (UV/VIS Spectrophotometric Method). This procedure was used to determine any residual nitrite found in samples. All samples were tested three weeks after being held in a −30° C. freezer then thawed in a 0° C. cooler.
# Procedure: • 1. Weigh 5 g (±0.01) of finely comminuted and thoroughly mixed sample into a 100 ml beaker. • 2. Add approximately 40 ml distilled water and heat to 80° C. Use a glass rod to break up all lumps and mix thoroughly. • 3. Transfer the heated solution to a 500 ml volumetric flask. Quantitatively wash the beaker and rod with successive portions of the hot distilled water, adding all washings to the flask (approximately 300 ml). • 4. Transfer the flask to a steam bath (˜100° C.) and shake occasionally for 2 hour. After cooling to room temperature, bring the volume to 500 ml with distilled water and remix. Filter through two Whatman No. 2 filter papers into flask and mix solution thoroughly (discard the residue). Then transfer 25 ml of the filtrate into a 50 ml volumetric flask then add 2.5 ml sulfanilamide reagent, mix thoroughly. • 5. After setting for 5 min, add 2.5 ml NED reagent, mix. Dilute to volume with distilled water, mix and set for another 15 min to let the color develop. • 6. Transfer a portion of the solution to the cuvette and read absorbance at 540 nm against a blank of 45 ml distilled water+2.5 ml sulfanilamide reagent+2.5 ml NED reagent.
# • 1. Pipette 0.5 mL of plasma (or serum) to a 12×75 mm polypropylene tube. Place the tube in ice. • 2. Add 0.5 mL of […] to the tube (the tube remains in ice). • 3. Mix the tube well (using a vortex). • 4. After 2 min, add 0.25 mL of 2 M K2CO3 to the tube (the tube remains in ice). • 5.
# [5] = High (5000 ppm) L-arginine, 8 days post thermal processing
# [6] = High (5000 ppm) L-arginine, one day after thermal processing
# [7] = Low (1000 ppm) L-arginine, 8 days post thermal processing
# [8] = Low (1000 ppm) L-arginine, one day after thermal processing
smiles,measurement,setting,value
N=C(N)NCCC[C@H](N)C(=O)O [L-arginine],NO-Heme,NOS system [1]; [5],14.59^a ppm
same,Nitrosylation,NOS system [1]; [5],38.65^a %
same,Total Heme,NOS system [1]; [5],37.4^a ppm
same,NO-Heme,NOS system [1]; [6],13.43^b ppm
same,Nitrosylation,NOS system [1]; [6],60.58^b %
same,Total Heme,NOS system [1]; [7],28.56^b ppm
same,Nitrosylation,NOS system [1]; [8],37.05^a %
same,decrease in nitrosylation,NOS system [1]; during 8 days of refrigerated vacuum packaged storage,38-45%
same,pH after 2 hours of sample immersion,"[2]; 2 mM L-arginine, cooked",5.88^a
same,pH after 2 hours of sample immersion,"[2]; 2 mM L-arginine, raw",5.84^a
same,pH after 2 hours of sample immersion,"[2]; 4 mM L-arginine, cooked",5.86^a
same,pH after 2 hours of sample immersion,"[2]; 4 mM L-arginine, raw",5.85^a
same,pH after 2 hours of sample immersion,"[2]; 8 mM L-arginine, cooked",5.87^a
same,pH after 2 hours of sample immersion,"[2]; 8 mM L-arginine, raw",5.83^a
same,pH after 2 hours of sample immersion,"[2]; 16 mM L-arginine, cooked",5.94^a
same,pH after 2 hours of sample immersion,"[2]; 16 mM L-arginine, raw",5.88^a
same,pH after 2 hours of sample immersion,"[2]; 32 mM L-arginine, cooked",6.05^a
same,pH after 2 hours of sample immersion,"[2]; 32 mM L-arginine, raw",6.01^a
same,sample pH after the immersion phase,"[2]; range over raw and cooked, 0-32 mM",5.83-6.05
same,Total Heme,NOS system [3]; [6],22.21^a ppm
same,NO-Heme,NOS system [3]; [7],12.95^a ppm
same,Nitrosylation,NOS system [3]; [7],45.28^a %
same,NO-Heme,NOS system [3]; [8],8.21^a ppm
same,Total Heme,NOS system [3]; [8],22.21^a ppm
same,nitrosylation percentage,"NOS system [3]; from the low to high concentrations, one day after thermal processing",37 to 60%
same,cured color (FIG. 8),NOS system [3]; high concentration (5000 ppm) L-arginine,pink cured color formation
same,cured color (FIG. 8),NOS system [3]; low concentration (1000 ppm) L-arginine,slight cured color
same,Residual Nitrite,"[4]; 2 mM L-arginine, cooked pellet",10.46 ppm and 10.46^a ppm
same,Residual Nitrite,"[4]; 2 mM L-arginine, cooked supernatant",5.81 ppm and 5.81^ab ppm
same,Residual Nitrite,"[4]; 2 mM L-arginine, raw supernatant, stored 3 weeks at -30° C.",4.53^b ppm
same,Residual Nitrite,"[4]; 4 mM L-arginine, cooked pellet",9.35 ppm and 9.35^a ppm
same,Residual Nitrite,"[4]; 4 mM L-arginine, cooked supernatant",8.79 ppm and 8.79^a ppm
same,Residual Nitrite,"[4]; 4 mM L-arginine, raw supernatant, stored 3 weeks at -30° C.",8.00 ppm and 8.00^ab ppm
same,Residual Nitrite,"[4]; 8 mM L-arginine, cooked pellet",11.22 ppm and 11.22^a ppm
same,Residual Nitrite,"[4]; 8 mM L-arginine, cooked supernatant",5.85 ppm and 5.85^ab ppm
same,Residual Nitrite,"[4]; 8 mM L-arginine, raw supernatant, stored 3 weeks at -30° C.",9.66 ppm and 9.66^ab ppm
same,Residual Nitrite,"[4]; 16 mM L-arginine, cooked pellet",14.06 ppm and 14.06^a ppm
same,Residual Nitrite,"[4]; 16 mM L-arginine, cooked supernatant",3.19 ppm and 3.19^ab ppm
same,Residual Nitrite,"[4]; 16 mM L-arginine, raw supernatant, stored 3 weeks at -30° C.",9.23 ppm and 9.23^ab ppm
same,Residual Nitrite,"[4]; 32 mM L-arginine, cooked pellet",15.69 ppm and 15.69^a ppm
same,Residual Nitrite,"[4]; 32 mM L-arginine, cooked supernatant",7.86 ppm and 7.86^ab ppm
same,Residual Nitrite,"[4]; 32 mM L-arginine, raw supernatant, stored 3 weeks at -30° C.",14.34 ppm and 14.34^a ppm
